Results reported in publication PMC3353862.
Converted amounts (≈) assume the structure as drawn.

Tests used:
[1] = tested on: bacterial protein synthesis (aminoacylation/translation system); experiment: aminoacylation/translation (A/T) assay; assay type: biochemical; settings: for IC50: A/T assay, Table 1, read-out: IC50
[2] = tested on: M. catarrhalis; experiment: Broth microdilution MIC testing; assay type: cell-based, Moraxella catarrhalis; settings: for MIC: Moraxella catarrhalis
[3] = tested on: H. influenzae; experiment: Broth microdilution MIC testing; assay type: cell-based, Haemophilus influenzae; settings: for MIC H. flu: H. influenzae; for MIC: Haemophilus influenzae, read-out: MIC H. flu
[4] = tested on: S. aureus; experiment: Broth microdilution MIC testing; assay type: cell-based, Staphylococcus aureus; settings: for MIC: Staphylococcus aureus, read-out: MIC S. aureus
[5] = tested on: E. faecalis; experiment: Broth microdilution MIC testing; assay type: cell-based, Enterococcus faecalis; settings: for MIC E. fae: E. faecalis; for MIC: Enterococcus faecalis, read-out: MIC E. fae
[6] = tested on: E. coli modified with PMBN; experiment: Broth microdilution MIC testing; assay type: cell-based, Escherichia coli; settings: for MIC E. coli +PMBP: E. coli modified with PMBN; for MIC: Escherichia coli, read-out: MIC E. coli +PMBP
[7] = tested on: E. coli tolC mutants; experiment: Broth microdilution MIC testing; assay type: cell-based, Escherichia coli; settings: for MIC E. coli tolC: E. coli tolC mutants; for MIC: Escherichia coli, read-out: MIC E. coli tolC
[8] = tested on: S. pneumoniae; experiment: Broth microdilution MIC testing; assay type: cell-based, Streptococcus pneumoniae; settings: for MIC S. pneumo: S. pneumoniae; for MIC: Streptococcus pneumoniae, read-out: MIC S. pneumo

Row | SMILES | IC50 [1] [nM] | MIC M. cat [2] [µg/mL] | MIC H. flu [3] [µg/mL] | MIC S. aureus [4] [µg/mL] | MIC E. fae [5] [µg/mL] | MIC E. coli +PMBP [6] [µg/mL] | MIC E. coli tolC [7] [µg/mL] | MIC S. pneumo [8] [µg/mL] | MIC [2] [µg/mL] | MIC [3] [µg/mL] | MIC [4] [µg/mL] | MIC [5] [µg/mL] | MIC [6] [µg/mL] | MIC [7] [µg/mL] | MIC [8] [µg/mL] | fold reduction of potency/biochemical activity in the A/T assay ([1]; relative to 321521)
1 | CCOCc1cc(CN2CCc3nc(-c4ccccn4)[nH]c(=O)c3C2)ccc1OC [Compound 323208] | 2700 | 4 (≈ 9.84 µM) | 64 (≈ 157 µM) | > 128 | > 128 | 64 (≈ 157 µM) | 64 (≈ 157 µM) | 32 (≈ 78.7 µM) |  |  |  |  |  |  |  | 
2 | COc1cc(C)c(CN2CCc3nc(-c4ccccn4)[nH]c(=O)c3C2)cc1OC [Compound 323209] | 1500 | 4 (≈ 10.2 µM) | 64 (≈ 163 µM) | > 128 | > 128 | 64 (≈ 163 µM) | 64 (≈ 163 µM) | 32 (≈ 81.5 µM) |  |  |  |  |  |  |  | 
3 | O=C(COc1ccc(CN2CCc3nc(-c4ccccn4)[nH]c(=O)c3C2)cc1)N1CCCC1 [Compound 323210] | 3200 | > 128 | > 128 | > 128 | > 128 | > 128 | > 128 | > 128 |  |  |  |  |  |  |  | 
4 | O=C1CCCN1c1ccc(CN2CCc3nc(-c4ccccn4)[nH]c(=O)c3C2)cc1 [Compound 323211] | 1600 | 64 (≈ 159 µM) | > 128 | > 128 | > 128 | > 128 | > 128 | > 128 |  |  |  |  |  |  |  | 
5 | Cn1c(=O)n(C)c2cc(CN3CCc4nc(-c5ccccn5)[nH]c(=O)c4C3)ccc21 [Compound 323213] | 2400 | > 128 | > 128 | > 128 | > 128 | > 128 | > 128 | > 128 |  |  |  |  |  |  |  | 
6 | COc1cc(CN2CCc3nc(-c4ccccn4)[nH]c(=O)c3C2)ccc1OCCO [Compound 323214] | > 300000 | > 128 | > 128 | > 128 | > 128 | > 128 | > 128 | > 128 |  |  |  |  |  |  |  | 
7 | COc1cc(CN2CCc3nc(-c4ccccn4)[nH]c(=O)c3C2)ccc1O [Compound 323215] | 2100 | 128 (≈ 351 µM) | 64 (≈ 176 µM) | > 128 | > 128 | > 128 | > 128 | > 128 |  |  |  |  |  |  |  | 
8 | O=c1[nH]c(-c2ccccn2)nc2c1CN(Cc1ccc(Cl)cc1)CC2 [Compound 323216] | 1100 | ≤0.12 | 2 (≈ 5.67 µM) | 16 (≈ 45.3 µM) | 32 (≈ 90.7 µM) | 8 (≈ 22.7 µM) | 8 (≈ 22.7 µM) | 4 (≈ 11.3 µM) |  |  |  |  |  |  |  | 
9 | COc1ccc(CN2CCc3nc(-c4ccccn4)[nH]c(=O)c3C2)cc1O [Compound 323217] | 4800 | 32 (≈ 87.8 µM) | 32 (≈ 87.8 µM) | > 128 | > 128 | > 128 | > 128 | > 128 |  |  |  |  |  |  |  | 
10 | O=c1[nH]c(-c2ccccn2)nc2c1CN(Cc1ccccc1Cl)CC2 [Compound 323219] | 3000 | ≤0.12 | 4 (≈ 11.3 µM) | 16 (≈ 45.3 µM) | 32 (≈ 90.7 µM) | 16 (≈ 45.3 µM) | 8 (≈ 22.7 µM) | 4 (≈ 11.3 µM) |  |  |  |  |  |  |  | 
11 | O=c1[nH]c(-c2ccccn2)nc2c1CN(Cc1cccc(Cl)c1)CC2 [Compound 323220] | 2100 | ≤0.12 | 2 (≈ 5.67 µM) | 16 (≈ 45.3 µM) | 32 (≈ 90.7 µM) | 8 (≈ 22.7 µM) | 8 (≈ 22.7 µM) | 4 (≈ 11.3 µM) |  |  |  |  |  |  |  | 
12 | CC(=O)Nc1ccc(CN2CCc3nc(-c4ccccn4)[nH]c(=O)c3C2)cc1 [Compound 323222] | > 300000 | > 128 | > 128 | > 128 | > 128 | > 128 | > 128 | > 128 |  |  |  |  |  |  |  | 
13 | COc1cccc(CN2CCc3nc(-c4ccccn4)[nH]c(=O)c3C2)c1OC [Compound 323223] | 14700 | 4 (≈ 10.6 µM) | 32 (≈ 84.6 µM) | > 128 | > 128 | 64 (≈ 169 µM) | 128 (≈ 338 µM) | 32 (≈ 84.6 µM) |  |  |  |  |  |  |  | 
14 | COc1cc(OC)c(OC)cc1CN1CCc2nc(-c3ccccn3)[nH]c(=O)c2C1 [Compound 323226] | 8000 | 64 (≈ 157 µM) | > 128 | > 128 | > 128 | > 128 | > 128 | > 128 |  |  |  |  |  |  |  | 
15 | O=c1[nH]c(-c2ccccn2)nc2c1CN(Cc1cc(F)cc(F)c1)CC2 [Compound 323230] | 2000 | 0.5 (≈ 1.41 µM) | 8 (≈ 22.6 µM) | 32 (≈ 90.3 µM) | 32 (≈ 90.3 µM) | 16 (≈ 45.2 µM) | 16 (≈ 45.2 µM) | 8 (≈ 22.6 µM) |  |  |  |  |  |  |  | 
16 | CN(CCO)c1ccc(CN2CCc3nc(-c4ccccn4)[nH]c(=O)c3C2)cc1 [Compound 323232] | 3200 | 8 (≈ 20.4 µM) | > 128 | > 128 | > 128 | > 128 | 128 (≈ 327 µM) | > 128 |  |  |  |  |  |  |  | 
17 | COc1cc2c(cc1CN1CCc3nc(-c4ccccn4)[nH]c(=O)c3C1)OCO2 [Compound 323233] | > 300000 | 4 (≈ 10.2 µM) | 16 (≈ 40.8 µM) | > 128 | 128 (≈ 326 µM) | 64 (≈ 163 µM) | 64 (≈ 163 µM) | 32 (≈ 81.5 µM) |  |  |  |  |  |  |  | 
18 | COc1ccc(CN2CCc3nc(-c4ccccn4)[nH]c(=O)c3C2)cc1Cn1cccn1 [Compound 323234] | 5800 | 16 (≈ 37.3 µM) | 128 (≈ 299 µM) | > 128 | 128 (≈ 299 µM) | 64 (≈ 149 µM) | > 128 | 128 (≈ 299 µM) |  |  |  |  |  |  |  | 
19 | COc1ccc(CN2CCc3nc(-c4ccccn4)[nH]c(=O)c3C2)c(OC)c1O [Compound 323236] | 7800 | > 128 | > 128 | > 128 | > 128 | > 128 | > 128 | > 128 |  |  |  |  |  |  |  | 
20 | O=c1[nH]c(-c2ccccn2)nc2c1CN(Cc1cccc(F)c1F)CC2 [Compound 323237] | 2800 | 0.5 (≈ 1.41 µM) | 4 (≈ 11.3 µM) | 32 (≈ 90.3 µM) | 64 (≈ 181 µM) | 16 (≈ 45.2 µM) | 8 (≈ 22.6 µM) | 8 (≈ 22.6 µM) |  |  |  |  |  |  |  | 
21 | CC(=O)Oc1ccc(CN2CCc3nc(-c4ccccn4)[nH]c(=O)c3C2)cc1 [Compound 323238] | 2100 | 16 (≈ 42.5 µM) | 32 (≈ 85 µM) | > 128 | > 128 | > 128 | > 128 | > 128 |  |  |  |  |  |  |  | 
22 | CCOc1ccc(CN2CCc3nc(-c4ccccn4)[nH]c(=O)c3C2)cc1Cn1ccnc1 [Compound 323239] | 3000 | 8 (≈ 18.1 µM) | 64 (≈ 145 µM) | > 128 | 64 (≈ 145 µM) | 128 (≈ 289 µM) | 64 (≈ 145 µM) | > 128 |  |  |  |  |  |  |  | 
23 | O=C(c1ccc(Cl)cc1)N1CCc2nc(-c3ccccn3)[nH]c(=O)c2C1 [Compound 323353] | 1700 |  |  |  |  |  |  |  | 8 (≈ 21.8 µM) | 32 (≈ 87.2 µM) | > 128 | > 128 | 128 (≈ 349 µM) | 128 (≈ 349 µM) | 128 (≈ 349 µM) | 
24 | O=c1[nH]c(-c2cnccn2)nc2c1CN(Cc1ccc(Cl)cc1)CC2 [Compound 323354] | 21600 |  |  |  |  |  |  |  | 16 (≈ 45.2 µM) | > 128 | > 128 | > 128 | > 128 | > 128 | > 128 | tenfold
25 | Clc1ccc(CN2CCc3nc(-c4ccccn4)ncc3C2)cc1 [Compound 323355] | 32100 |  |  |  |  |  |  |  | 4 (≈ 11.9 µM) | 64 (≈ 190 µM) | 128 (≈ 380 µM) | > 128 | 64 (≈ 190 µM) | 64 (≈ 190 µM) | 64 (≈ 190 µM) | 
